Assays:
[1] = system: Ross 308 male broiler chicks; assay: Stress, non-adaptation and adaptation scores from gene signatures (RT-qPCR) in the chicken-paraquat model; format: in vivo
Description: (§1) All experimental procedures used in the current study were approved by the Ethics and Research Committee of the institution conducting the study. A total of 144 one-day-old Ross 308 male broiler chicks, with an average body weight (BW) of 39 g, were reared from D1 to D21. They were allocated in 72 battery cages (0.5×0.42 m^2) with wire floors (6 chicks/cage) in environmentally controlled rooms. The birds were randomly assigned to treatment pens with similar starting weights. Each cage was equipped with one trough feeder and one drinker. Birds had ad libitum access to mash feeds and water during all study. Average temperature was 33° C. at placement, being reduced by 1° C. every 2 days until 23° C. to provide comfort throughout the study. The lighting program was 18 hours light and 6 hours dark during each 24 hours period throughout the trial.
The experimental design was a completely randomized factorial design, consisting of a placebo or oxidative stress groups thus two experimental treatments, and 12 replicates per treatment with 6 birds for each replicate. The oxidative stress was applied only from D7 to D14, through the supplementation of a xenobiotic, i.e. paraquat dichloride hydrate (Sigma-Aldrich Company Ltd., Dorset, UK), through the water supply system at the dose of 110 μg/mL. This dosage was achieved by using water containers, individually located in each cage. The control group received standard water (placebo) on the same period using similar containers. A starter and grower diets were provided from D1 to D7, and D8 to D21, respectively. The basal diets were standard wheat/corn-soy-based broiler diets, and were formulated to meet or exceed the nutrient requirements of broilers, as recommended by the NRC (1994). Body weight (BW) was recorded on D1, D7, D14 and D21. On D14 and D21, one bird per pen replicate of each treatment was sacrificed for tissue collection. Briefly, 100 mg of tissue (breast, liver and ileum) were immerged in 2-mL Eppendorf tubes containing 1 mL RNAlater® (Sigma-Aldrich), and kept at −20° C. until analysis. RNA extraction and purification was conducted as described in Example 1.
To remove traces of contaminant genomic DNA, 2.5 μg of total RNA was treated with 2.5 U of DNasel (ThermoFischer) in a final volume of […] for 15 min at 25° C. Next, DNase was inhibited by addition of EDTA to a final concentration of 8 mM and incubated for 10 min at 70° C. Half of the DNase-treated RNA sample was reverse transcribed (RT), the other half was kept as no-RT control. RNA was denatured in a total volume of 17.6 μL containing 1.25 μg total RNA, 5 mM of nonanucleotide random primer (dN9) and 0.5 μM each dNTPs (Thermofischer). This mix was heated to 70° C. for 5 min in a thermocycler (SimpliAmp™, Life Technologies). Then, RT-AMV buffer (Life Sciences Advance Technology) was added together with 40 U RNAsine (Promega) and 0.25 U AMV Reverse Transcriptase (RT) (Life Sciences Advance Technology), and the volume was adjusted to 21.6 μL. Primers were hybridized by incubation at 25° C. for 15 min, and extension was conducted for 2 hours at 45° C. in thermocycler. No-RT controls were treated in parallel, but addition of AMV-RT enzyme was omitted.
For the quantitative PCR reaction, 1 μL of cDNA sample diluted to ⅓ was mixed to 2 μL specific primers mix 2.5 mM each and 5 μL of 2× Takyon sybrgreen—No ROX (Eurogentec) in a final volume of 10 μL. Each PCR reaction was set in triplicate. Amplification was conducted on a LC480 LightCycler® Nano (Roche) using 384 well plates and the following program: 1 initial activation cycle at 95° C. for 3 min, then 45 cycles [95° C. for 10 sec; 60° C. for 15 sec; 72° C. for 15 sec]. Specificity of each amplification was monitored by fusion curve technic detecting a single peak corresponding to one single amplicon, consisting in an initial denaturation at 95° C. for 5 sec, followed by ramping from 55 to 95° C. at 0.11° C./sec, and 5 acquisitions per sec. […]

[2] = format: in vivo, chicken; details: paraquat-treated chickens, 110 μg/mL in water supply D7 to D14
Description: as §1
The experimental design was a completely randomized factorial design, consisting of a placebo or oxidative stress groups thus two experimental treatments, and 12 replicates per treatment with 6 birds for each replicate. The oxidative stress was applied only from D7 to D14, through the supplementation of a xenobiotic, i.e. paraquat dichloride hydrate (Sigma-Aldrich Company Ltd., Dorset, UK), through the water supply system at the dose of 110 μg/mL. […] Body weight (BW) was recorded on D1, D7, D14 and D21. […]

[3] = 4 most conserved genes signature
[4] = twenty-six genes or four most conserved genes signature, FIG. 5, bottom

SMILES: C[n+]1ccc(-c2cc[n+](C)cc2)cc1 [paraquat, paraquat dichloride hydrate]
- Adaptation Score (%) ([1]; 4-gene signatures, mean ± SD): 0.0 ± 0.0%
- Non-adaptation Score (%) ([1]; 4-gene signatures, mean ± SD): 78.2 ± 29.5%
- Stress Score (%) ([1]; 4-gene signatures, mean ± SD): 69.2 ± 21.6%
- Adaptation Score (%) [1, 3]: 0%
- Non-adaptation Score (%) [1, 3]: 100%
- Stress Score (%) ([1]; 4 most conserved genes signature (Anxa1, Anxa2, Chac1, Postn)): 75%
- Adaptation Score (%) ([1]; 5-gene signatures, mean ± SD): 0.0 ± 0.0%
- Non-adaptation Score (%) ([1]; 5-gene signatures, mean ± SD): 79.4 ± 24.8%
- Stress Score (%) ([1]; 5-gene signatures, mean ± SD): 69.2 ± 18.9%
- Adaptation Score (%) ([1]; 6-gene signatures, mean ± SD): 0.0 ± 0.0%
- Non-adaptation Score (%) ([1]; 6-gene signatures, mean ± SD): 79.8 ± 21.5%
- Stress Score (%) ([1]; 6-gene signatures, mean ± SD): 69.2 ± 16.8%
- Adaptation Score (%) ([1]; 7-gene signatures, mean ± SD): 0.0 ± 0.0%
- Non-adaptation Score (%) ([1]; 7-gene signatures, mean ± SD): 79.9 ± 19.0%
- Stress Score (%) ([1]; 7-gene signatures, mean ± SD): 69.2 ± 15.2%
- Adaptation Score (%) ([1]; 8-gene signatures, mean ± SD): 0.0 ± 0.0%
- Non-adaptation Score (%) ([1]; 8-gene signatures, mean ± SD): 80.0 ± 17.0%
- Stress Score (%) ([1]; 8-gene signatures, mean ± SD): 69.2 ± 13.8%
- Adaptation Score (%) ([1]; 9-gene signatures, mean ± SD): 0.0 ± 0.0%
- Non-adaptation Score (%) ([1]; 9-gene signatures, mean ± SD): 80.0 ± 15.4%
- Stress Score (%) ([1]; 9-gene signatures, mean ± SD): 69.2 ± 12.7%
- Adaptation Score (%) ([1]; 10-gene signatures, mean ± SD): 0.0 ± 0.0%
- Non-adaptation Score (%) ([1]; 10-gene signatures, mean ± SD): 80.0 ± 14.1%
- Stress Score (%) ([1]; 10-gene signatures, mean ± SD): 69.2 ± 11.7%
- Adaptation Score (%) ([1]; 11-gene signatures, mean ± SD): 0.0 ± 0.0%
- Non-adaptation Score (%) ([1]; 11-gene signatures, mean ± SD): 80.0 ± 13.0%
- Stress Score (%) ([1]; 11-gene signatures, mean ± SD): 69.2 ± 10.8%
- Adaptation Score (%) ([1]; 12-gene signatures, mean ± SD): 0.0 ± 0.0%
- Non-adaptation Score (%) ([1]; 12-gene signatures, mean ± SD): 80.0 ± 12.0%
- Stress Score (%) ([1]; 12-gene signatures, mean ± SD): 69.2 ± 10.0%
- Adaptation Score (%) ([1]; 13-gene signatures, mean ± SD): 0.0 ± 0.0%
- Non-adaptation Score (%) ([1]; 13-gene signatures, mean ± SD): 80.0 ± 11.0%
- Stress Score (%) ([1]; 13-gene signatures, mean ± SD): 69.2 ± 9.2%
- Adaptation Score (%) ([1]; 14-gene signatures, mean ± SD): 0.0 ± 0.0%
- Non-adaptation Score (%) ([1]; 14-gene signatures, mean ± SD): 80.0 ± 10.2%
- Stress Score (%) ([1]; 14-gene signatures, mean ± SD): 69.2 ± 8.5%
- Adaptation Score (%) ([1]; 15-gene signatures, mean ± SD): 0.0 ± 0.0%
- Non-adaptation Score (%) ([1]; 15-gene signatures, mean ± SD): 80.0 ± 9.4%
- Stress Score (%) ([1]; 15-gene signatures, mean ± SD): 69.2 ± 7.9%
- Adaptation Score (%) ([1]; 16-gene signatures, mean ± SD): 0.0 ± 0.0%
- Non-adaptation Score (%) ([1]; 16-gene signatures, mean ± SD): 80.0 ± 8.7%
- Stress Score (%) ([1]; 16-gene signatures, mean ± SD): 69.2 ± 7.3%
- Adaptation Score (%) ([1]; 17-gene signatures, mean ± SD): 0.0 ± 0.0%
- Non-adaptation Score (%) ([1]; 17-gene signatures, mean ± SD): 80.0 ± 7.9%
- Stress Score (%) ([1]; 17-gene signatures, mean ± SD): 69.2 ± 6.7%
- Adaptation Score (%) ([1]; 18-gene signatures, mean ± SD): 0.0 ± 0.0%
- Non-adaptation Score (%) ([1]; 18-gene signatures, mean ± SD): 80.0 ± 7.3%
- Stress Score (%) ([1]; 18-gene signatures, mean ± SD): 69.2 ± 6.2%
- Adaptation Score (%) ([1]; 19-gene signatures, mean ± SD): 0.0 ± 0.0%
- Non-adaptation Score (%) ([1]; 19-gene signatures, mean ± SD): 80.0 ± 6.6%
- Stress Score (%) ([1]; 19-gene signatures, mean ± SD): 69.2 ± 5.6%
- Adaptation Score (%) ([1]; 20-gene signatures, mean ± SD): 0.0 ± 0.0%
- Non-adaptation Score (%) ([1]; 20-gene signatures, mean ± SD): 80.0 ± 6.0%
- Stress Score (%) ([1]; 20-gene signatures, mean ± SD): 69.2 ± 5.0%
- Adaptation Score (%) ([1]; 21-gene signatures, mean ± SD): 0.0 ± 0.0%
- Non-adaptation Score (%) ([1]; 21-gene signatures, mean ± SD): 80.0 ± 5.3%
- Stress Score (%) ([1]; 21-gene signatures, mean ± SD): 69.2 ± 4.5%
- Adaptation Score (%) ([1]; 22-gene signatures, mean ± SD): 0.0 ± 0.0%
- Non-adaptation Score (%) ([1]; 22-gene signatures, mean ± SD): 80.0 ± 4.6%
- Stress Score (%) ([1]; 22-gene signatures, mean ± SD): 69.2 ± 3.9%
- Adaptation Score (%) ([1]; 23-gene signatures, mean ± SD): 0.0 ± 0.0%
- Non-adaptation Score (%) ([1]; 23-gene signatures, mean ± SD): 80.0 ± 3.9%
- Stress Score (%) ([1]; 23-gene signatures, mean ± SD): 69.2 ± 3.3%
- Adaptation Score (%) ([1]; 24-gene signatures, mean ± SD): 0.0 ± 0.0%
- Non-adaptation Score (%) ([1]; 24-gene signatures, mean ± SD): 80.0 ± 3.1%
- Stress Score (%) ([1]; 24-gene signatures, mean ± SD): 69.2 ± 2.7%
- Adaptation Score (%) ([1]; 25-gene signatures, mean ± SD): 0.0 ± 0.0%
- Non-adaptation Score (%) ([1]; 25-gene signatures, mean ± SD): 80.0 ± 2.2%
- Stress Score (%) ([1]; 25-gene signatures, mean ± SD): 69.2 ± 1.8%
- Adaptation Score (%) ([1]; 26-gene signature, mean ± SD): 0.0 ± 0.0%
- Non-adaptation Score (%) ([1]; 26-gene signature, mean ± SD): 80.0 ± 0.0%
- Stress Score (%) ([1]; 26-gene signature, mean ± SD): 69.2 ± 0.0%
- non-adaptation (NA) score [1, 4]: high
- stress (S) score [1, 4]: high
- body weight change [2]: weight-loss

Source: patent US12624395B2, “Process for identifying a stress state and/or for assessing the stress response level in a subject” (ADISSEO FRANCE S.A.S., priority 2019, dated 2026)
